According to the NIST ThermoML archive (doi:10.1021/je049762q):
Where “and” joins values, the source holds several entries; their conditions need not be identical. Identical values can stand only once. Numbers after ± are expanded uncertainties.

Assay: molar heat capacity at constant pressure
Conditions: 101.33 kPa, Crystal

Clc1cc(Cl)cc(Cl)c1 [1,3,5-trichlorobenzene]
Conditions	molar heat capacity at constant pressure
6.3 K	0.73 ± 0.04 J/K/mol
6.76 K	1.13 ± 0.04 J/K/mol
7.5 K	1.88 ± 0.05 J/K/mol
7.61 K	1.64 ± 0.05 J/K/mol
8.27 K	2.46 ± 0.06 J/K/mol
8.49 K	2.76 ± 0.07 J/K/mol
9.54 K	3.28 ± 0.07 J/K/mol
9.57 K	3.32 ± 0.07 J/K/mol
10 K	3.78 ± 0.08 J/K/mol
10.48 K	4.28 ± 0.09 J/K/mol
10.78 K	4.56 ± 0.09 J/K/mol
11.23 K	4.67 ± 0.09 J/K/mol
11.76 K	5.07 ± 0.1 J/K/mol
12.18 K	5.67 ± 0.11 J/K/mol
13.16 K	7.41 ± 0.13 J/K/mol
14.33 K	8.56 ± 0.14 J/K/mol
14.68 K	9.1 ± 0.15 J/K/mol
15 K	9.58 ± 0.15 J/K/mol
16.47 K	11.78 ± 0.17 J/K/mol
16.54 K	11.86 ± 0.17 J/K/mol
18.11 K	14.04 ± 0.19 J/K/mol
18.46 K	14.51 ± 0.19 J/K/mol
19.49 K	16.03 ± 0.21 J/K/mol
20 K	16.74 ± 0.21 J/K/mol
20.47 K	17.39 ± 0.21 J/K/mol
20.67 K	17.88 ± 0.22 J/K/mol
21.77 K	19.17 ± 0.22 J/K/mol
22.76 K	20.24 ± 0.22 J/K/mol
24.03 K	21.5 ± 0.22 J/K/mol
25 K	22.66 ± 0.23 J/K/mol
25.53 K	23.3 ± 0.23 J/K/mol
26.89 K	24.95 ± 0.23 J/K/mol
26.99 K	25.08 ± 0.23 J/K/mol
28.15 K	26.53 ± 0.22 J/K/mol
29.75 K	28.33 ± 0.22 J/K/mol
30 K	28.58 ± 0.2 J/K/mol
32.12 K	30.66 ± 0.2 J/K/mol
34.24 K	32.73 ± 0.21 J/K/mol
36.16 K	34.21 ± 0.22 J/K/mol
37.93 K	35.9 ± 0.22 J/K/mol
39.58 K	37.3 ± 0.23 J/K/mol
40 K	37.64 ± 0.23 J/K/mol
41.88 K	39.13 ± 0.24 J/K/mol
44.77 K	41.44 ± 0.25 J/K/mol
47.4 K	43.42 ± 0.25 J/K/mol
49.84 K	45.24 ± 0.26 J/K/mol
50 K	45.36 ± 0.26 J/K/mol
52.12 K	46.94 ± 0.27 J/K/mol
54.28 K	48.44 ± 0.27 J/K/mol
56.33 K	49.86 ± 0.28 J/K/mol
58.29 K	51.22 ± 0.29 J/K/mol
60 K	52.37 ± 0.29 J/K/mol
60.17 K	52.49 ± 0.29 J/K/mol
61.98 K	53.68 ± 0.3 J/K/mol
63.73 K	54.83 ± 0.3 J/K/mol
65.43 K	55.89 ± 0.3 J/K/mol
67.08 K	56.99 ± 0.31 J/K/mol
68.68 K	57.99 ± 0.31 J/K/mol
70 K	58.81 ± 0.32 J/K/mol
70.25 K	58.96 ± 0.32 J/K/mol
71.78 K	59.87 ± 0.32 J/K/mol
73.27 K	60.75 ± 0.32 J/K/mol
74.74 K	61.66 ± 0.33 J/K/mol
76.18 K	62.52 ± 0.33 J/K/mol
77.59 K	63.36 ± 0.33 J/K/mol
78.98 K	64.16 ± 0.34 J/K/mol
80 K	65.01 ± 0.34 J/K/mol
80.55 K	65.45 ± 0.34 J/K/mol
81.45 K	65.93 ± 0.34 J/K/mol
82.22 K	66.44 ± 0.35 J/K/mol
83.86 K	67.37 ± 0.35 J/K/mol
83.98 K	67.39 ± 0.35 J/K/mol
85.47 K	68.28 ± 0.35 J/K/mol
86.45 K	68.77 ± 0.36 J/K/mol
87.05 K	69.08 ± 0.36 J/K/mol
88.6 K	70 ± 0.36 J/K/mol
88.86 K	70.1 ± 0.36 J/K/mol
90 K	70.62 ± 0.54 J/K/mol
90.14 K	70.69 ± 0.54 J/K/mol
91.23 K	71.17 ± 0.54 J/K/mol
91.65 K	71.42 ± 0.54 J/K/mol
93.14 K	72.19 ± 0.54 J/K/mol
93.56 K	72.31 ± 0.54 J/K/mol
94.61 K	72.86 ± 0.55 J/K/mol
94.95 K	73 ± 0.55 J/K/mol
95.84 K	73.25 ± 0.55 J/K/mol
96.07 K	73.4 ± 0.55 J/K/mol
97.51 K	74.13 ± 0.55 J/K/mol
98.08 K	74.45 ± 0.55 J/K/mol
98.92 K	74.86 ± 0.55 J/K/mol
100 K	75.37 ± 0.55 J/K/mol
100.29 K	74.9 ± 0.55 J/K/mol
101.72 K	76.37 ± 0.55 J/K/mol
102.39 K	76.72 ± 0.55 J/K/mol
102.47 K	76.71 ± 0.55 J/K/mol
103.09 K	76.88 ± 0.55 J/K/mol
104.45 K	77.52 ± 0.56 J/K/mol
104.61 K	77.48 ± 0.56 J/K/mol
105.8 K	78.18 ± 0.56 J/K/mol
105.97 K	78.26 ± 0.56 J/K/mol
106.72 K	78.56 ± 0.56 J/K/mol
107.13 K	78.9 ± 0.56 J/K/mol
107.15 K	78.92 ± 0.56 J/K/mol
108.46 K	79.49 ± 0.56 J/K/mol
108.81 K	79.58 ± 0.56 J/K/mol
109.46 K	80.02 ± 0.56 J/K/mol
109.77 K	80.18 ± 0.56 J/K/mol
110 K	80.28 ± 0.56 J/K/mol
110.87 K	80.59 ± 0.56 J/K/mol
111.07 K	80.74 ± 0.56 J/K/mol
111.47 K	80.93 ± 0.56 J/K/mol
112.36 K	81.34 ± 0.56 J/K/mol
112.87 K	81.56 ± 0.56 J/K/mol
113.65 K	81.98 ± 0.56 J/K/mol
114.92 K	82.54 ± 0.57 J/K/mol and 82.67 ± 0.57 J/K/mol
115.68 K	83.09 ± 0.57 J/K/mol
116.19 K	83.21 ± 0.57 J/K/mol
116.91 K	83.54 ± 0.57 J/K/mol
118.88 K	84.5 ± 0.57 J/K/mol
119.52 K	84.75 ± 0.57 J/K/mol
119.79 K	85.04 ± 0.57 J/K/mol
120 K	85.15 ± 0.57 J/K/mol
120.83 K	85.51 ± 0.57 J/K/mol
122.75 K	86.55 ± 0.57 J/K/mol
124.68 K	87.28 ± 0.57 J/K/mol
125.93 K	87.73 ± 0.58 J/K/mol
126.58 K	88.03 ± 0.58 J/K/mol
127.78 K	88.73 ± 0.58 J/K/mol
128.47 K	88.92 ± 0.58 J/K/mol
129.07 K	89.19 ± 0.58 J/K/mol
130 K	89.68 ± 0.58 J/K/mol
130.33 K	89.86 ± 0.58 J/K/mol
131.66 K	90.66 ± 0.58 J/K/mol
132.19 K	90.72 ± 0.58 J/K/mol
134.03 K	91.56 ± 0.58 J/K/mol
135.22 K	92.02 ± 0.58 J/K/mol
135.48 K	92.36 ± 0.58 J/K/mol
135.85 K	92.4 ± 0.58 J/K/mol
137.66 K	93.21 ± 0.59 J/K/mol
138.23 K	93.42 ± 0.59 J/K/mol
139.24 K	94.03 ± 0.59 J/K/mol
140 K	94.33 ± 0.59 J/K/mol
141.21 K	94.75 ± 0.59 J/K/mol
141.25 K	94.81 ± 0.59 J/K/mol
142.95 K	95.67 ± 0.59 J/K/mol
144.16 K	96.04 ± 0.59 J/K/mol
146.61 K	97.27 ± 0.59 J/K/mol
147.08 K	97.34 ± 0.59 J/K/mol
149.97 K	98.63 ± 0.6 J/K/mol
150 K	98.65 ± 0.6 J/K/mol
150.22 K	98.83 ± 0.6 J/K/mol
152.83 K	99.87 ± 0.6 J/K/mol
153.79 K	100.35 ± 0.6 J/K/mol
155.66 K	101.1 ± 0.6 J/K/mol
157.32 K	101.86 ± 0.6 J/K/mol
158.47 K	102.3 ± 0.6 J/K/mol
160 K	102.99 ± 0.61 J/K/mol
160.81 K	103.34 ± 0.61 J/K/mol
161.25 K	103.49 ± 0.61 J/K/mol
164.01 K	104.67 ± 0.61 J/K/mol
164.27 K	104.83 ± 0.61 J/K/mol
166.74 K	105.83 ± 0.61 J/K/mol
167.69 K	106.28 ± 0.61 J/K/mol
169.46 K	106.98 ± 0.61 J/K/mol
170 K	107.22 ± 0.61 J/K/mol
